# Like-named read-outs stand apart in the source and are kept apart here. Non-standard residues stand in square brackets, D forms with d. Residues, ends and D or L forms follow the SMILES beside them. Dmt = Cc1cc(O)cc(C)c1C[C@H](N)C(=O)O
# Key:
# in vivo = conditions: male, mouse, ip, 30 mg/kg
# Method: For PK evaluation, SS-31 was administered i.p. to male mice in suspension (gelatine/saline 7.5%/0.62% in water) using an administration volume of 4 ml/kg. Blood samples were collected in tubes containing EDTA as an anticoagulant, and plasma was separated by centrifugation and stored at −80°C. Liver and kidney samples (∼100 mg aliquots) were homogenized in three volumes of water using Precellys tissue homogenization tubes (precellys.com). Twenty-five microliters of each tissue homogenate was further diluted with 25 µl blank plasma to produce the final tissue homogenate for extraction. Prepared samples were stored at −20°C before analysis.
# All samples were analyzed using protein precipitation followed by LC-MS/MS analysis. Briefly, 50 µl plasma or final tissue homogenate was mixed with 50 µl 0.5 M HClO4/acetonitrile 9/1 (containing 200 ng/ml bosentan as an internal standard). Samples were stirred and 300 µl water was added, followed by centrifugation at 5600 rpm (4°C, 10 min). Ten microliters of supernatant was analyzed by LC/MS. Calibration standards in plasma were prepared the same way. The LC columns and conditions used were as follows: Phenomenex, Polar RP, 4 µm, and 50 × 2.1 mm at 0.4-ml/min flow rate with a 3-min gradient from 95% solvent A to 95% solvent B (solvent A: water/acetonitrile/HCOOH, 90:10:0.1 with 10 mM NH4 formate; solvent B: water/ACN/HCOOH, 10:90:0.1 with 10 mM NH4 formate). Mass spectrometric conditions were as follows: Thermo TSQ Vantage with positive heated electrospray ionization in MS/MS mode. Mass transitions of the compounds were m/z 320.7 to 119.9. Relative concentrations of the drug and metabolites were established by the percentage of peak area ratio compared to time zero spiked compounds. PK parameters for all studies were calculated using Phoenix WinNonlin Software.
# [1] = Stability in mouse plasma at 37°C; format: in vitro ADME; conditions: for Stability [% of T0] / Release of SS-31 from α-Glu-SS-31: 1 μM; for remaining at 0.5 h, 1 µM / remaining at 1 h, 1 µM / remaining at 3 h, 1 µM / remaining at 5 h, 1 µM: heparinized mouse plasma, read-out: Stability [% of T0]
# Method: Finally, we determined if α-Glu functionalization of SS-31 would improve the plasma stability of the compound. SS-31 or α-Glu-SS-31 (at 1 µM concentration) was added to heparinized mouse plasma, and the aliquots were incubated at 37°C for various time points before analysis ( Table 2 ). After a rapid decrease of α-Glu-SS-31 concentration, associated with the appearance of free SS-31, in mouse plasma, the concentration of both compounds remained stable for up to 5 h, whereas SS-31 concentration decreased regularly during the same period of time.
# aminopeptidase A (APA) [2] = biological target: T1, aminopeptidase A (APA) (Rattus norvegicus, UniProt P50123); assay: APA enzymatic activity in intact living EC219 cells (α-Glu-AMC substrate); format: cell-based
# T1 construct: These cells express high levels of APA and γ-GT activities and can be used to measure kinetics in living cells; endogenous in cells; host or cells: EC219 rat brain-derived endothelial cells
# Method: The preparation and characterization of rat brain-derived EC219 endothelial cells were previously described ([Juillerat-Jeanneret et al., 1992]). These cells express high levels of APA and γ-GT activities and can be used to measure kinetics in living cells as APA and γ-GT-positive representative cell models. The cells were grown in Dulbecco’s modified Eagle medium (DMEM) containing 1 g/L glucose, 10% heat-inactivated fetal calf serum (FCS), and antibiotics on uncoated cell culture plastic plates and flasks. MDCK and LLCPK cells were obtained from the American Tissue Culture Collection (ATCC, Manassas, VA, USA) and were grown in DMEM containing 4.5 g/L glucose, 10% FCS, and antibiotics. mCCD, and mDCT cells were a kind gift from O. Bonny (UNIL, Lausanne, Switzerland) and were cultured in DMEM (Ham’s F12 1:1 vol/vol, 60 nM sodium selenate, 5 μg/ml transferrin, 50 nM dexamethasone, 1 nM triiodothyronine, 10 ng/ml epidermal growth factor, 5 μg/ml insulin) and 2% FCS. The characteristics of the used cell lines are shown in Supplementary Table S2 .
# Stock solutions of α-Glu-AMC (APA) and γ-Glu-AMC and Gly-Gly (γ-GT) substrates, all from Bachem, were prepared at 10 mM in DMSO. EC219 cells were grown to confluence in 96-well plates (Corning, NY, USA), then the culture medium was removed, and the cell layers washed once with 100 µl PBS and 100 µl of substrates at decreasing concentrations (320–10 µM) of α-Glu-AMC or γ-Glu-AMC and 20 mM Gly-Gly substrates diluted in PBS and increasing concentrations (0–20 µM) of SS-31 analogs were added. The increase in […] was measured at 37°C in a thermostated fluorescence multiwell-plate reader (CytoFluor Series 4000; PerSeptive Biosystems, MA, USA) at λex = 360 nm/λem = 460 nm using the linear portion of the curves. The kinetics values were then graphically determined or according to Wu and colleagues ([Wu et al., 2011]).
# (A) Intact living EC219 cells were exposed to increasing concentrations of either amastatin (left panel) or acivicin (right panel), two well-characterized enzymatic activity inhibitors of APA or γ-GT, respectively. The activities of the enzymes aminopeptidase A (APA) or γ-glutamyltranspeptidase (γ-GT) were determined using 40 µM of the substrates (S), α-Glu-AMC or γ-Glu-AMC, respectively. (B) Intact living EC219 cells were exposed to increasing concentrations [10-320 µM] of the APA α-Glu-AMC substrate, in the presence of increasing concentrations of SS-31 or α-Glu-SS-31, and the increase of free AMC fluorescence was recorded. Data were analyzed graphically. (DMSO 0.2% was present in all samples).
# aminopeptidase A (APA) [3] = biological target: T2, aminopeptidase A (APA) (Mus musculus, UniProt P16406); assay: Histoenzymography of APA activity on frozen kidney sections of ADR-treated mice; format: biochemical; conditions: kidney sections of ADR-exposed mice, α-Glu-βNA substrate, 37°C
# T2 construct: from tissue; host or cells: frozen kidney sections of ADR-treated BALB/c male mice
# T2 sequence (P16406 1-945): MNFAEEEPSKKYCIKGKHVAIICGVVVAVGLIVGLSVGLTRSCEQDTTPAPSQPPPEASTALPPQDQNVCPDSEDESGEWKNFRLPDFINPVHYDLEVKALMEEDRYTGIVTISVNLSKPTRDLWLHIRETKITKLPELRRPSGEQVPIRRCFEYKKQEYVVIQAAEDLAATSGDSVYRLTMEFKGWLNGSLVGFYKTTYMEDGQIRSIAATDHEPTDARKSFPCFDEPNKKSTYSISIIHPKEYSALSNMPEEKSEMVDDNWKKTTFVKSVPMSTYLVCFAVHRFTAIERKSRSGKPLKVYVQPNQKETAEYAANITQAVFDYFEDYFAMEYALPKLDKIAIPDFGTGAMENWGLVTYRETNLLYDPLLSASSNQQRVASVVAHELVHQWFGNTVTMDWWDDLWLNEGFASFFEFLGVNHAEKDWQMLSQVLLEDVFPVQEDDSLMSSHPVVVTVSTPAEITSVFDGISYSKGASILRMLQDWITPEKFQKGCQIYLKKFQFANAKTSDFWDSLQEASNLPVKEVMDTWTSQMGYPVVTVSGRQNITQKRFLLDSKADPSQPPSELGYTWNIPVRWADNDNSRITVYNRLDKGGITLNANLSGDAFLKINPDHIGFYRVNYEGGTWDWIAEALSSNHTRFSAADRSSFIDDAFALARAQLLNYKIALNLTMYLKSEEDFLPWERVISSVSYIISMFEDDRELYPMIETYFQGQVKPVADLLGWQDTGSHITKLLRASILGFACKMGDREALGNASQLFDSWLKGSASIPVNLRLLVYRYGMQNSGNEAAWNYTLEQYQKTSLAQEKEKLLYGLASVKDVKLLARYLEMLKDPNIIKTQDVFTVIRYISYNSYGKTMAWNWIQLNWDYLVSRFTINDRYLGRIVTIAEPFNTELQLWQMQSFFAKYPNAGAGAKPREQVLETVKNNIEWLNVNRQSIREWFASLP
# Method: Enzymatic activities were evaluated by histoenzymography on OCT-embedded frozen kidneys sections (7 µm), as previously described ([Juillerat-Jeanneret et al., 1992]; [Juillerat-Jeanneret et al., 2000]; [Juillerat-Jeanneret et al., 2003]). Briefly, slides were fixed for 5 min in cold (−20°C) acetone, air dried at room temperature, rehydrated for 5 min in 0.9% NaCl, and exposed to the α-Glu-4-methoxy-β-naphtylamide (APA; Bachem) or γ-Glu-4-methoxy-β-naphtylamide (γ-GT; Serva) substrates and Fast Blue B (Sigma-Aldrich) at 37°C for 15 to 60 min until a red coloration was visible. The slides were washed in distilled water, counterstained with hematoxylin (Mayer) for 1 min, rinsed under tap water and then with Scott solution for 1 min, and mounted in Aquamount (Immu-mount; Thermo Shandon, Pittsburgh, PA, USA) and analyzed with a Nikon Eclipse E800 microscope and digital DXM1200 camera using ACT-1 software.
# Sequential sections (7 µm) of frozen OCT-embedded kidneys of adriamycin (ADR)-treated mice were exposed at 37°C to β-methoxynaphthylamide (β-NA) specific substrates of aminopeptidase A (α-Glu-βNA, upper panels) or γ-glutamyltranspeptidase (γ-Glu-βNA, lower panels) and Fast Blue B, in the absence (none) or the presence of SS-31, α-Glu-SS-31 or γ-Glu-SS-31. The sections were then counterstained with light hematoxylin reagent. The enzymatic activity is visualized as a red precipitate. […]
# T1 sequence (P50123 whole entry): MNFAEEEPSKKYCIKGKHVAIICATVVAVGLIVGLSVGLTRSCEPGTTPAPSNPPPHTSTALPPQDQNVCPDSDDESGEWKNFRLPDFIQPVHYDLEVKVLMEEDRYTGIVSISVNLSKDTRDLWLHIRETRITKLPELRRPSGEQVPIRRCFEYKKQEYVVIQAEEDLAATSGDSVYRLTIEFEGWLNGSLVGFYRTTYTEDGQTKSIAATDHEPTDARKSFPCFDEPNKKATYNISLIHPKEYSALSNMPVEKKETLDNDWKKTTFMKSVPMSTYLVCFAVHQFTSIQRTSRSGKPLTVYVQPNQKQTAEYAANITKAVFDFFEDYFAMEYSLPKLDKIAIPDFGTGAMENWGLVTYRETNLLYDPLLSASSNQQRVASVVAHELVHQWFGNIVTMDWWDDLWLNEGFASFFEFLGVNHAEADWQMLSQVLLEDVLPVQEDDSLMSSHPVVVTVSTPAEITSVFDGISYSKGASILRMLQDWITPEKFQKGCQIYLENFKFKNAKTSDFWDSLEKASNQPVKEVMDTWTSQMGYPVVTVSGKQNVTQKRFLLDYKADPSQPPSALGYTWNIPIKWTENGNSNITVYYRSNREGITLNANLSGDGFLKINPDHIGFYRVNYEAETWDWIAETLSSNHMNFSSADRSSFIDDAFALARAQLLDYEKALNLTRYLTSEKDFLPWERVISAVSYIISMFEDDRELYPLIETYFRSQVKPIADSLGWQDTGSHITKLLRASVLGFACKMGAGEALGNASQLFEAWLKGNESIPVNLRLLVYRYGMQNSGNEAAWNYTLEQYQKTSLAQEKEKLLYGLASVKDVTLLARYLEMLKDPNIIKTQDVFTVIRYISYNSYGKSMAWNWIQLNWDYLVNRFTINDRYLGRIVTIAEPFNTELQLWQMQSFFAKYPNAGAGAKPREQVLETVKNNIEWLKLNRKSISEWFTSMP
smiles,measurement,setting,value
"Cc1cc(O)cc(C)c1C[C@H](NC(=O)[C@H](N)CCCNC(=N)N)C(=O)N[C@@H](CCCCN)C(=O)N[C@@H](Cc1ccccc1)C(N)=O [SS-31, D-Arg-dimethylTyr-Lys-Phe-NH2] (H-[dR][Dmt]KF-NH2)",AUC(0-inf),in vivo; kidney,31300 ng·h/mL
same,AUC(0-t),in vivo; kidney,27800 ng·h/mL
same,Cmax,in vivo; kidney,17200 ng/mL
same,Tmax,in vivo; kidney,1 h
same,half-life,in vivo; kidney,1.1 h
same,level at time molar,in vivo; kidney,~140 nM
same,AUC(0-inf),in vivo; liver,22100 ng·h/mL
same,AUC(0-t),in vivo; liver,20700 ng·h/mL
same,Cmax,in vivo; liver,12700 ng/mL
same,Tmax,in vivo; liver,1 h
same,half-life,in vivo; liver,0.9 h
same,AUC(0-inf),in vivo; plasma,21100 ng·h/mL
same,AUC(0-t),in vivo; plasma,21100 ng·h/mL
same,Cmax,in vivo; plasma,20000 ng/mL
same,Tmax,in vivo; plasma,1 h
same,half-life,in vivo; plasma,0.3 h
same,Stability [% of T0],[1]; time 0 h,100%
same,"remaining at 0.5 h, 1 µM",[1]; time 0.5 h,89.3%
same,"remaining at 1 h, 1 µM",[1]; time 1 h,85.3%
same,"remaining at 3 h, 1 µM",[1]; time 3 h,50.1%
same,"remaining at 5 h, 1 µM",[1]; time 5 h,43%
same,IC50,aminopeptidase A (APA) [2],8.5 ± 3.8 µM
CC(C)C[C@@H](N)[C@H](O)C(=O)N[C@H](C(=O)N[C@H](C(=O)N[C@@H](CC(=O)O)C(=O)O)C(C)C)C(C)C [amastatin],IC50,"aminopeptidase A (APA) [2]; intact living EC219 cells, 40 µM α-Glu-AMC, read-out: IC50 APA",< 1 µM
"Cc1cc(O)cc(C)c1C[C@H](NC(=O)[C@@H](CCCNC(=N)N)NC(=O)[C@@H](N)CCC(=O)O)C(=O)N[C@@H](CCCCN)C(=O)N[C@@H](Cc1ccccc1)C(N)=O [α-Glu-SS-31, H-Glu-D-Arg-DMT-Lys-Phe-NH 2 .2TFA] (H-E[dR][Dmt]KF-NH2)",Release of SS-31 from α-Glu-SS-31,[1]; time 0 h,7.5%
same,Stability [% of T0],[1]; time 0 h,100%
same,Release of SS-31 from α-Glu-SS-31,[1]; time 0.5 h,9%
same,Release of SS-31 from α-Glu-SS-31,[1]; time 1 h,9%
same,Release of SS-31 from α-Glu-SS-31,[1]; time 3 h,10%
same,Release of SS-31 from α-Glu-SS-31,[1]; time 5 h,9%
same,"remaining at 0.5 h, 1 µM",[1]; time 0.5 h,68.5%
same,"remaining at 1 h, 1 µM",[1]; time 1 h,68.3%
same,"remaining at 3 h, 1 µM",[1]; time 3 h,66.9%
same,"remaining at 5 h, 1 µM",[1]; time 5 h,65.8%
same,enzymatic activity of APA (histoenzymography),aminopeptidase A (APA) [3],selectively inhibited
same,IC50,aminopeptidase A (APA) [2],13.7 ± 6.7 µM
same,inhibition of APA activity,aminopeptidase A (APA) [2]; intact living EC219 cells,selective inhibition

# — publication PMC6857474, “Differential Effects of the Mitochondria-Active Tetrapeptide SS-31 (D-Arg-dimethylTyr-Lys-Phe-NH2) and Its Peptidase-Targeted Prodrugs in Experimental Acute Kidney Injury” (Frontiers in Pharmacology, 2019)
